Consider 1 compound from patent EP0973766B1, “QUINOXALINEDIONES” (Pfizer Limited, priority 1997, dated 1998).

The data set is described as follows: Lipophilicity by the octanol/water partition method.

Structures are written as SMILES.

As for `COCc1nnc(-c2ccc[n+]([O-])c2)n1-c1c(Cl)c(Cl)cc2[nH]c(=O)c(=O)[nH]c12` [Example 2, (-)-6,7-Dichloro-5-[3-methoxymethyl-5-(1-oxidopyridin-3-yl)-4H-1,2,4-triazol-4-yl]-2,3(1H,4H)-quinoxalinedione hydrate], the logD is -1.7.

In general, logD refers to the decadic logarithm of the distribution of all forms, ionised or not, between an organic phase and buffer at a given pH. A higher logD goes with higher lipophilicity.
